Consider 46 compounds from patent publication US6440984B1, “Use of aryl-substituted pyrimidines as insecticidal and acaricidal agents” (BASF Aktiengesellschaft, priority 1998, dated 2002).

What all share (type): in vivo
Assay [1] relates to Spodoptera Eridania, 3rd Instar Larvae, Southern Armyworm (SAW). The assay can be described thus: Southern armyworm (SAW) leaf-dip test, observations at 5 days. To be noted: Southern Army Worm, rating scale; for pest or weed control at 1000 ppm: Spodoptera eridania, foliar, 120 h, read-out: SAW 2^ND-FOLIAR 1000 (ppm). On the procedure:
(§1) Test solutions are prepared by dissolving the test compound in a 35% acetone in water mixture to give a concentration of 10,000 ppm. Subsequent dilutions are made with water as needed.
Spodoptera Eridania, 3rd Instar Larvae, Southern Armyworm (SAW)
A Sieva lima bean leaf expanded to 7-8 cm in length is dipped in the test solution with agitation for 3 seconds and allowed to dry in a hood. The leaf is then placed in a 100×10 mm petri dish containing a damp filter paper on the bottom and ten 3rd instar caterpillars. At 5 days, observations are made of mortality, reduced feeding, or any interference with normal molting.

Assay [2] concerns Tetranychus Urticae (OP-resistant strain), 2-spotted Spider Mite (TSM). Nature of the assay: Two-spotted spider mite (TSM) plant-dip test, mortality after 2 days. To be noted: rating scale. On the procedure:
as §1
Tetranychus Urticae (OP-resistant strain), 2-spotted Spider Mite (TSM)
Sieva lima bean plants with primary leaves expanded to 7-8 cm are selected and cut back to one plant per pot. A small piece is cut from an infested leaf taken from the main colony and placed on each leaf of the test plants. This is done about 2 hours before treatment to allow the mites to move over to the test plant to lay eggs. The size of the cut, infested leaf is varied to obtain about 100 mites per leaf. At the time of test treatment, the piece of leaf used to transfer the mites is removed and discarded. The newly-infested plants are dipped in the test solution for 3 seconds with agitation and set in the hood to dry. After 2 days, one leaf is removed and mortality counts are made.

Assay [3] concerns Aphis Fabae, Mixed Instar, Bean Aphid (BA). The assay can be described thus: Bean aphid (BA) foliar spray test, mortality after 2 days. To be noted: rating scale; for pest or weed control at 300 ppm: Aphis fabae, 48 h, read-out: BA AD-FOLIAR 300 (ppm). On the procedure:
as §1
Aphis Fabae, Mixed Instar, Bean Aphid (BA)
Pots containing single nasturtium plants (Tropaeolum sp.) about 5 cm tall are infested with about 100-200 aphids one day before the test. Each pot is sprayed with the test solution for 2 revolutions of a 4 rpm turntable in a hood. The spray is directed to give complete coverage of the plants and aphids. The sprayed pots are set on their sides on white trays and held for 2 days, following which mortality estimates are made. Essentially the same method is used with respect to cotton aphid (CA).

As to `FC(F)(F)c1cc(Oc2nccc(-c3ccc(Cl)cc3)n2)ccc1Cl` [Compound 1], in assay [1], the “SAW 2^ND-FOLIAR 1000 (ppm)” value is reported as “A (A 0-45% kill)”.

Turning to `FC(F)(F)c1cccc(Oc2nccc(-c3ccc(Cl)cc3)n2)c1` [Compound 2], in assay [2], the “TSM AD-FOLIAR 300 (ppm)” value is “C (C 76-100% kill)”.

As to `O=[N+]([O-])c1ccc(Oc2nccc(-c3ccc(Cl)cc3)n2)cc1C(F)(F)F` [Compound 3], the “SAW 2^ND-FOLIAR 1000 (ppm)” value in assay [1] is “B (B 45-75% kill)”.

Consider `Fc1ccc(Oc2nccc(-c3ccc(Cl)cc3)n2)cc1C(F)(F)F` [Compound 4], for which the “TSM AD-FOLIAR 300 (ppm)” value in assay [2] is listed as “A (A 0-45% kill)”.

With `Fc1ccc(Oc2nccc(-c3ccccc3)n2)cc1C(F)(F)F` [Compound 6], the “SAW 2^ND-FOLIAR 1000 (ppm)” value in assay [1] is on record as “A (A 0-45% kill)”.

`O=[N+]([O-])c1ccc(Oc2nccc(-c3ccccc3)n2)cc1C(F)(F)F` [Compound 8]: the “SAW 2^ND-FOLIAR 1000 (ppm)” value in assay [1] is on record as “A (A 0-45% kill)”.

Turning to `O=[N+]([O-])c1ccc(-c2ccnc(Oc3cccc(C(F)(F)F)c3)n2)cc1` [Compound 9], the “BA AD-FOLIAR 300 (ppm)” value in assay [3] is reported as “B (B 45-75% kill)”.

As to `CCc1ccc(-c2ccnc(Oc3ccc(F)c(Cl)c3)n2)cc1` [Compound 13], the “BA AD-FOLIAR 300 (ppm)” value in assay [3] is reported as “C (C 76-100% kill)”. The “SAW 2^ND-FOLIAR 1000 (ppm)” value in assay [1] is recorded as “C (C 76-100% kill)”.

Take `CCc1ccc(-c2ccnc(Oc3cccc(C(F)(F)F)c3)n2)cc1` [Compound 15]: the “BA AD-FOLIAR 300 (ppm)” value in assay [3] is “C (C 76-100% kill)”. For the same compound, the “TSM AD-FOLIAR 300 (ppm)” value in assay [2] is recorded as “C (C 76-100% kill)”.

On to `CCc1ccc(-c2ccnc(Oc3ccc(Cl)c(C(F)(F)F)c3)n2)cc1` [Compound 17], for which the “BA AD-FOLIAR 300 (ppm)” value in assay [3] was “C (C 76-100% kill)”.

With `FC(F)(F)c1cccc(-c2ccnc(Oc3ccc(Cl)c(Cl)c3)n2)c1` [Compound 20], the “BA AD-FOLIAR 300 (ppm)” value in assay [3] is reported as “B (B 45-75% kill)”. The “SAW 2^ND-FOLIAR 1000 (ppm)” value in assay [1] is “A (A 0-45% kill)”.

Take `CC(C)(C)c1ccc(-c2ccnc(Oc3ccc(Cl)c(C(F)(F)F)c3)n2)cc1` [Compound 25]: in assay [3], the “BA AD-FOLIAR 300 (ppm)” value is “A (A 0-45% kill)”.

As for `CC(C)(C)c1ccc(-c2ccnc(Oc3ccc([N+](=O)[O-])c(C(F)(F)F)c3)n2)cc1` [Compound 26], the “BA AD-FOLIAR 300 (ppm)” value in assay [3] is “B (B 45-75% kill)”.

With `FC(F)(F)c1ccc(-c2ccnc(Oc3ccc(Cl)c(Cl)c3)n2)cc1` [Compound 28], in assay [3], the “BA AD-FOLIAR 300 (ppm)” value is on record as “A (A 0-45% kill)”.

With `Fc1ccc(Oc2nccc(-c3ccc(C(F)(F)F)cc3)n2)cc1Cl` [Compound 31], the “BA AD-FOLIAR 300 (ppm)” value in assay [3] is recorded as “B (B 45-75% kill)”.

Consider `O=[N+]([O-])c1ccc(Oc2nccc(-c3ccc(C(F)(F)F)cc3)n2)cc1C(F)(F)F` [Compound 33], for which the “BA AD-FOLIAR 300 (ppm)” value in assay [3] was “B (B 45-75% kill)”.

`O=[N+]([O-])c1ccc(Oc2nccc(-c3cccc(OC(F)(F)F)c3)n2)cc1C(F)(F)F` [Compound 40]: the “SAW 2^ND-FOLIAR 1000 (ppm)” value in assay [1] is listed as “A (A 0-45% kill)”.

In the case of `FC(F)(F)Oc1cccc(-c2ccnc(Oc3cc(Cl)cc(Cl)c3)n2)c1` [Compound 41], the “TSM AD-FOLIAR 300 (ppm)” value in assay [2] is listed as “A (A 0-45% kill)”.

For `FC(F)(F)Oc1ccc(-c2ccnc(Oc3cc(Cl)cc(Cl)c3)n2)cc1` [Compound 44], in assay [1], the “SAW 2^ND-FOLIAR 1000 (ppm)” value was “A (A 0-45% kill)”.

For the compound `FC(F)(F)Oc1ccc(-c2ccnc(Oc3cc(C(F)(F)F)cc(C(F)(F)F)c3)n2)cc1` [Compound 45], the “BA AD-FOLIAR 300 (ppm)” value in assay [3] is “C (C 76-100% kill)”.

With `FC(F)(F)Oc1ccc(-c2ccnc(Oc3ccc(Cl)c(C(F)(F)F)c3)n2)cc1` [Compound 46], in assay [3], the “BA AD-FOLIAR 300 (ppm)” value is given as “B (B 45-75% kill)”. In addition, in assay [1], the “SAW 2^ND-FOLIAR 1000 (ppm)” value is given as “B (B 45-75% kill)”.

Regarding `Fc1cc(-c2ccnc(Oc3cccc(C(F)(F)F)c3)n2)cc(C(F)(F)F)c1` [Compound 52], the “SAW 2^ND-FOLIAR 1000 (ppm)” value in assay [1] is recorded as “A (A 0-45% kill)”.

Regarding `Fc1cc(-c2ccnc(Oc3ccc(F)c(C(F)(F)F)c3)n2)cc(C(F)(F)F)c1` [Compound 53], the “BA AD-FOLIAR 300 (ppm)” value in assay [3] is “C (C 76-100% kill)”. For the same compound, the “SAW 2^ND-FOLIAR 1000 (ppm)” value in assay [1] is “A (A 0-45% kill)”.

`Fc1cc(-c2ccnc(Oc3ccc(Cl)c(Cl)c3)n2)cc(C(F)(F)F)c1` [Compound 58]: in assay [3], the “BA AD-FOLIAR 300 (ppm)” value was “C (C 76-100% kill)”.

Take `Fc1cc(F)cc(-c2ccnc(Oc3cccc(C(F)(F)F)c3)n2)c1` [Compound 61]: the “BA AD-FOLIAR 300 (ppm)” value in assay [3] is given as “C (C 76-100% kill)”.

Take `Fc1cc(F)cc(-c2ccnc(Oc3ccc(F)c(C(F)(F)F)c3)n2)c1` [Compound 62]: the “BA AD-FOLIAR 300 (ppm)” value in assay [3] is on record as “B (B 45-75% kill)”. For the same compound, the “SAW 2^ND-FOLIAR 1000 (ppm)” value in assay [1] is recorded as “C (C 76-100% kill)”.

Regarding `Fc1ccc(Oc2nccc(-c3ccc(F)c(C(F)(F)F)c3)n2)cc1C(F)(F)F` [Compound 70], in assay [2], the “TSM AD-FOLIAR 300 (ppm)” value is given as “B (B 45-75% kill)”.

For `CCc1cnc(Oc2cccc(C(F)(F)F)c2)nc1-c1ccc(Cl)c(F)c1` [Compound 82], in assay [1], the pest or weed control at 1000 ppm was 76 to 100%.

Regarding `CSc1cc(-c2cccc(C(F)(F)F)c2)nc(Oc2cccc(C(F)(F)F)c2)n1` [Compound 108], the pest or weed control at 300 ppm in assay [3] lay within 45 to 75%.

For `FC(F)(F)c1cccc(Oc2nccc(-c3cccc(C(F)(F)F)c3)n2)c1` [Compound 109], the pest or weed control at 300 ppm in assay [3] is 45 to 75%. For the same compound, the pest or weed control at 1000 ppm in assay [1] was in the range of 0 to 45%.

With `FC(F)(F)c1cccc(Oc2nc(Cl)cc(-c3cccc(C(F)(F)F)c3)n2)c1` [Compound 110], the pest or weed control at 1000 ppm in assay [1] was 76 to 100%.

For the compound `CN(C)c1cc(-c2cccc(C(F)(F)F)c2)nc(Oc2cccc(C(F)(F)F)c2)n1` [Compound 111], the pest or weed control at 300 ppm in assay [3] lay in the range of 76 to 100%.

Consider `Fc1ccc(Oc2nccc(-c3cccc(C(F)(F)F)c3)n2)cc1C(F)(F)F` [Compound 112], for which, in assay [1], the pest or weed control at 1000 ppm is 0 to 45%.

With `CSc1cc(-c2ccc(Cl)cc2)nc(Oc2cccc(Cl)c2)n1` [Compound 119], the pest or weed control at 1000 ppm in assay [1] was 45 to 75%.

Turning to `FC(F)(F)c1cc(Oc2nccc(-c3ccc(Cl)cc3)n2)ccc1Cl` [Compound 122], the pest or weed control at 1000 ppm in assay [1] was 45 to 75%.

Take `Fc1ccc(Oc2nccc(-c3ccccc3)n2)cc1C(F)(F)F` [Compound 130]: the pest or weed control at 300 ppm in assay [3] lay within 0 to 45%.

`Fc1cccc(Oc2nccc(-c3ccc(Cl)cc3)n2)c1` [Compound 137]: the pest or weed control at 300 ppm in assay [3] lay in the range of 76 to 100%.

On to `N#Cc1cccc(Oc2nccc(-c3ccc(Cl)cc3)n2)c1` [Compound 141], for which, in assay [3], the pest or weed control at 300 ppm lay within 45 to 75%.

With `Fc1cccc(Oc2nccc(-c3ccc(Cl)cc3)n2)c1` [Compound 142], the pest or weed control at 300 ppm in assay [2] (Tetranychus urticae, 48 h, read-out: TSM AD-FOLIAR 300 (ppm)) lay in the range of 76 to 100%.

For the compound `COc1cccc(Oc2nccc(-c3ccc(Cl)cc3)n2)c1` [Compound 143], the pest or weed control at 300 ppm in assay [3] lay within 76 to 100%.

With `Clc1ccc(-c2ccnc(Oc3ccc(Cl)c(Cl)c3)n2)cc1` [Compound 151], the pest or weed control at 300 ppm in assay [3] was 45 to 75%.

`COc1ccc(-c2ccnc(Oc3ccc(F)c(C(F)(F)F)c3)n2)cc1` [Compound 153]: the pest or weed control at 300 ppm in assay [3] lay within 45 to 75%.

With `FC(F)(F)c1cccc(Oc2nccc(-c3ccc(Cl)c(Cl)c3)n2)c1` [Compound 154], the pest or weed control at 300 ppm in assay [3] lay within 45 to 75%.

On to `Fc1ccc(Oc2nccc(-c3ccc(Cl)c(Cl)c3)n2)cc1C(F)(F)F` [Compound 155], for which the pest or weed control at 300 ppm in assay [3] lay within 76 to 100%. Besides, the pest or weed control at 1000 ppm in assay [1] lay in the range of 0 to 45%.

For `FC(F)(F)c1cccc(Oc2nccc(-c3ccc(Br)cc3)n2)c1` [Compound 161], in assay [3], the pest or weed control at 300 ppm lay in the range of 76 to 100%. Further, in assay [1], the pest or weed control at 1000 ppm lay in the range of 0 to 45%.

Regarding `Fc1ccc(Oc2nccc(-c3ccc(Br)cc3)n2)cc1C(F)(F)F` [Compound 162], the pest or weed control at 1000 ppm in assay [1] lay in the range of 0 to 45%.
